Earlier results in paper PMC7395068, “The evolution of strategies to minimise the risk of human drug-induced liver injury (DILI) in drug discovery and development” (Archives of Toxicology, 2020).
Read-outs that look alike come from different tables or passages of the source.

Settings: cited from earlier work
[1] = binary in vivo DILI call given beside the severity category, ref Chen 2016
[2] = human DILI concern category (LTKB DILIrank), ref Chen 2016
[3] = LTKB DILIrank category, ref Chen 2016
[4] = binary human DILI assignment, ref Chen 2016

## CC(C)CC(N(C)C)C1(c2ccc(Cl)cc2)CCC1 (stereo not drawn) [sibutramine]
In vivo
  DILI +VE (5-8), DILI -VE (-4): +VE
  DILI severity category: vLess-DILI-Concern

## C[C@H](Cc1cc2c(c(C(N)=O)c1)N(CCCO)CC2)NCCOc1ccccc1OCC(F)(F)F [silodosin]
[1]
  DILI +VE (5-8), DILI -VE (-4): -VE
[2]
  DILI severity category: Ambiguous DILI-concern

## CSCC[C@H](NC(=O)[C@H](Cc1ccc(OS(=O)(=O)O)cc1)NC(=O)[C@@H](N)CC(=O)O)C(=O)NCC(=O)N[C@@H](Cc1c[nH]c2ccccc12)C(=O)N[C@@H](CCSC)C(=O)N[C@@H](CC(=O)O)C(=O)N[C@@H](Cc1ccccc1)C(N)=O [sincalide]
In vivo
  DILI +VE (5-8), DILI -VE (-4): -VE
  DILI severity category: vNo-DILI-Concern

## CO[C@H]1C[C@@H]2CC[C@@H](C)[C@@](O)(O2)C(=O)C(=O)N2CCCC[C@H]2C(=O)O[C@H]([C@H](C)C[C@@H]2CC[C@@H](O)[C@H](OC)C2)CC(=O)[C@H](C)/C=C(\C)[C@@H](O)[C@@H](OC)C(=O)[C@H](C)C[C@H](C)/C=C/C=C/C=C/1C [sirolimus]
[1]
  DILI +VE (5-8), DILI -VE (-4): +VE
[2]
  DILI severity category: vLess-DILI-Concern

## N[C@@H](CC(=O)N1CCn2c(nnc2C(F)(F)F)C1)Cc1cc(F)c(F)cc1F [sitagliptin]
[1]
  DILI +VE (5-8), DILI -VE (-4): +VE
[2]
  DILI severity category: vLess-DILI-Concern

## O=C([O-])O.[Na+] [sodium bicarbonate]
In vivo
  DILI +VE (5-8), DILI -VE (-4): -VE

## CC(O)C(=O)[O-].[Na+] (stereo not drawn) [sodium lactate]
In vivo
  DILI +VE (5-8), DILI -VE (-4): -VE
  DILI severity category: vNo-DILI-Concern

## O=S([O-])([O-])=S.[Na+].[Na+] [sodium thiosulfate]
In vivo
  DILI +VE (5-8), DILI -VE (-4): -VE
  DILI severity category: vNo-DILI-Concern

## O=C(O)[C@@H](S)[C@@H](S)C(=O)O [succimer]
[1]
  DILI +VE (5-8), DILI -VE (-4): +VE
[2]
  DILI severity category: vLess-DILI-Concern

## C[N+](C)(C)CCOC(=O)CCC(=O)OCC[N+](C)(C)C [succinylcholine]
[1]
  DILI +VE (5-8), DILI -VE (-4): -VE
[2]
  DILI severity category: vNo-DILI-Concern

## CCCCCCCCNC(C)C(O)c1ccc(SC(C)C)cc1 (stereo not drawn) [sulcotidil]
In vivo
  DILI +VE (5-8), DILI -VE (-4): +VE
  DILI severity category: vMost-DILI-Concern

## NC(=O)NS(=O)(=O)c1ccc(N)cc1 [sulfacarbamide]
[1]
  DILI +VE (5-8), DILI -VE (-4): +VE
[2]
  DILI severity category: vMost-DILI-Concern

## Nc1ccc(S(=O)(=O)Nc2ncccn2)cc1 [sulfadiazine]
[1]
  DILI +VE (5-8), DILI -VE (-4): +VE
[2]
  DILI severity category: vLess-DILI-Concern

## Nc1ccc(S(=O)(=O)Nc2nccs2)cc1 [sulfathiazole]
[1]
  DILI +VE (5-8), DILI -VE (-4): +VE
[2]
  DILI severity category: vMost-DILI-Concern

## CN1CC(=O)N2[C@H](c3ccc4c(c3)OCO4)c3[nH]c4ccccc4c3C[C@@H]2C1=O [tadalafil]
[1]
  DILI +VE (5-8), DILI -VE (-4): -VE
[2]
  DILI severity category: Ambiguous DILI-concern

## CC[C@@H](c1cccc(O)c1)[C@@H](C)CN(C)C [tapentadol]
[1]
  DILI +VE (5-8), DILI -VE (-4): -VE
[2]
  DILI severity category: vNo-DILI-Concern

## CCCCCNC(=N)N/N=C/c1c[nH]c2ccc(OC)cc12 [tegaserod]
[1]
  DILI +VE (5-8), DILI -VE (-4): -VE
[2]
  DILI severity category: Ambiguous DILI-concern

## COc1cc([C@@H]2c3cc4c(cc3[C@@H](O[C@@H]3O[C@@H]5CO[C@@H](c6cccs6)O[C@H]5[C@H](O)[C@H]3O)[C@H]3COC(=O)[C@H]23)OCO4)cc(OC)c1O [teniposide]
[1]
  DILI +VE (5-8), DILI -VE (-4): +VE
[2]
  DILI severity category: vLess-DILI-Concern

## COc1cc2c(cc1OC)C1CC(=O)C(CC(C)C)CN1CC2 (stereo not drawn) [tetrabenazine]
[1]
  DILI +VE (5-8), DILI -VE (-4): -VE
[2]
  DILI severity category: Ambiguous DILI-concern

## C[C@H](O)[C@H](O)[C@H]1CNc2nc(N)[nH]c(=O)c2N1 [tetrahydrobiopterin]
[1]
  DILI +VE (5-8), DILI -VE (-4): -VE
[2]
  DILI severity category: vNo-DILI-Concern

## O=C1CCC(N2C(=O)c3ccccc3C2=O)C(=O)N1 (stereo not drawn) [thalidomide]
[1]
  DILI +VE (5-8), DILI -VE (-4): +VE
[2]
  DILI severity category: vLess-DILI-Concern

## c1ccc2[nH]c(-c3cscn3)nc2c1 [thiabendazole]
[1]
  DILI +VE (5-8), DILI -VE (-4): +VE
[2]
  DILI severity category: vMost-DILI-Concern

## S=P(N1CC1)(N1CC1)N1CC1 [thiotepa]
[1]
  DILI +VE (5-8), DILI -VE (-4): +VE
[2]
  DILI severity category: vLess-DILI-Concern

## Cc1ccsc1C(=CCCN1CCC[C@@H](C(=O)O)C1)c1sccc1C [tiagabine]
[1]
  DILI +VE (5-8), DILI -VE (-4): -VE
[2]
  DILI severity category: Ambiguous DILI-concern

## CN(C)c1cc(NC(=O)CNC(C)(C)C)c(O)c2c1C[C@H]1C[C@H]3[C@H](N(C)C)C(O)=C(C(N)=O)C(=O)[C@@]3(O)C(O)=C1C2=O [tigecycline]
[1]
  DILI +VE (5-8), DILI -VE (-4): -VE
[2]
  DILI severity category: Ambiguous DILI-concern

## Cc1cc(Br)c(O)c2ncccc12 [tilbroquinol]
[1]
  DILI +VE (5-8), DILI -VE (-4): +VE
[2]
  DILI severity category: vMost-DILI-Concern

## O=P(O)(O)C(Sc1ccc(Cl)cc1)P(=O)(O)O [tiludronate]
[1]
  DILI +VE (5-8), DILI -VE (-4): -VE
[2]
  DILI severity category: vNo-DILI-Concern

## CC(C)(C)NC[C@H](O)COc1nsnc1N1CCOCC1 [timolol]
[1]
  DILI +VE (5-8), DILI -VE (-4): -VE
[2]
  DILI severity category: Ambiguous DILI-concern

## CC(S)C(=O)NCC(=O)O (stereo not drawn) [tiopronin]
[1]
  DILI +VE (5-8), DILI -VE (-4): -VE
[2]
  DILI severity category: Ambiguous DILI-concern

## CCCCS(=O)(=O)N[C@@H](Cc1ccc(OCCCCC2CCNCC2)cc1)C(=O)O [tirofiban]
[1]
  DILI +VE (5-8), DILI -VE (-4): -VE
[2]
  DILI severity category: vNo-DILI-Concern

## Clc1ccc2nsnc2c1NC1=NCCN1 [tizanidine]
In vivo
  DILI +VE (5-8), DILI -VE (-4): +VE
  DILI severity category: vMost-DILI-Concern

## COc1ccc2c(C(=S)N(C)CC(=O)O)cccc2c1C(F)(F)F [tolrestat]
[1]
  DILI +VE (5-8), DILI -VE (-4): +VE
[2]
  DILI severity category: vMost-DILI-Concern

## Cc1ccccc1C(=O)Nc1ccc(C(=O)N2CCCC(O)c3cc(Cl)ccc32)c(C)c1 (stereo not drawn) [tolvaptan]
[1]
  DILI +VE (5-8), DILI -VE (-4): +VE
[2]
  DILI severity category: vMost-DILI-Concern

## CC[C@@]1(O)C(=O)OCc2c1cc1n(c2=O)Cc2cc3c(CN(C)C)c(O)ccc3nc2-1 [topotecan]
[1]
  DILI +VE (5-8), DILI -VE (-4): -VE
[2]
  DILI severity category: vNo-DILI-Concern

## CCOC(=O)[C@H](CCc1ccccc1)N[C@@H](C)C(=O)N1[C@H](C(=O)O)C[C@H]2CCCC[C@@H]21 [trandolapril]
[1]
  DILI +VE (5-8), DILI -VE (-4): +VE
[2]
  DILI severity category: vLess-DILI-Concern

## CC(=O)Oc1ccc(C2(c3ccc(OC(C)=O)cc3)C(=O)N(C(C)=O)c3ccccc32)cc1 [triacetyldiphenolisatin]
[1]
  DILI +VE (5-8), DILI -VE (-4): +VE
[2]
  DILI severity category: vMost-DILI-Concern

## Nc1nc(N)c2nc(-c3ccccc3)c(N)nc2n1 [triamterene]
[1]
  DILI +VE (5-8), DILI -VE (-4): +VE
[2]
  DILI severity category: vLess-DILI-Concern

## Cc1nnc2n1-c1ccc(Cl)cc1C(c1ccccc1Cl)=NC2 [triazolam]
In vivo
  DILI +VE (5-8), DILI -VE (-4): -VE
  DILI severity category: Ambiguous DILI-concern

## Cl.Cl.NCCNCCNCCN [trientine hydrochloride]
In vivo
  DILI +VE (5-8), DILI -VE (-4): -VE
  DILI severity category: vNo-DILI-Concern

## COc1cc(C(=O)NCc2ccc(OCCN(C)C)cc2)cc(OC)c1OC [trimethobenzamide]
[1]
  DILI +VE (5-8), DILI -VE (-4): -VE
[2]
  DILI severity category: Ambiguous DILI-concern

## COc1cc(NCc2ccc3nc(N)nc(N)c3c2C)cc(OC)c1OC [trimetrexate]
[1]
  DILI +VE (5-8), DILI -VE (-4): -VE
[2]
  DILI severity category: Ambiguous DILI-concern

## CC(CN(C)C)CN1c2ccccc2CCc2ccccc21 (stereo not drawn) [trimipramine]
[1]
  DILI +VE (5-8), DILI -VE (-4): -VE
[2]
  DILI severity category: Ambiguous DILI-concern

## NC(CO)(CO)CO [tromethamine]
[3]
  DILI severity category: Ambiguous DILI-concern
[4]
  DILI +VE (5-8), DILI -VE (-4): -VE

## O=C(O[C@H]1C[C@H]2CC[C@@H](C1)[N+]21CCCC1)C(O)(c1ccccc1)c1ccccc1 [trospium]
[3]
  DILI severity category: vNo-DILI-Concern
[4]
  DILI +VE (5-8), DILI -VE (-4): -VE

## NCCc1ccc(O)cc1 [tyramine]
[3]
  DILI severity category: vNo-DILI-Concern
[4]
  DILI +VE (5-8), DILI -VE (-4): -VE

## CC(C)[C@H](N)C(=O)OCCOCn1cnc2c(=O)[nH]c(N)nc21 [valaciclovir]
[3]
  DILI severity category: vLess-DILI-Concern
[4]
  DILI +VE (5-8), DILI -VE (-4): +VE

## Cc1onc(-c2ccccc2)c1-c1ccc(S(N)(=O)=O)cc1 [valdecoxib]
[3]
  DILI severity category: vLess-DILI-Concern
[4]
  DILI +VE (5-8), DILI -VE (-4): +VE

## CC(C)[C@H](N)C(=O)OCC(CO)OCn1cnc2c(=O)nc(N)[nH]c21 (stereo partly drawn) [valganciclovir]
[3]
  DILI severity category: Ambiguous DILI-concern
[4]
  DILI +VE (5-8), DILI -VE (-4): -VE

## c1cnc2cc3c(cc2n1)[C@@H]1CNC[C@H]3C1 [varenicline]
[3]
  DILI severity category: vLess-DILI-Concern
[4]
  DILI +VE (5-8), DILI -VE (-4): +VE

## CC(=O)O[C@H]1C[C@@H]2CC[C@@H]3[C@H](CC[C@@]4(C)[C@H]3C[C@H]([N+]3(C)CCCCC3)[C@@H]4OC(C)=O)[C@@]2(C)C[C@@H]1N1CCCCC1 [vecuronium]
[3]
  DILI severity category: vNo-DILI-Concern
[4]
  DILI +VE (5-8), DILI -VE (-4): -VE

## C=CC(N)CCC(=O)O (stereo not drawn) [vigabatrin]
[3]
  DILI severity category: Ambiguous DILI-concern
[4]
  DILI +VE (5-8), DILI -VE (-4): -VE

## CC[C@]1(O)C[C@H]2CN(CCc3c([nH]c4ccccc34)[C@@](C(=O)OC)(c3cc4c(cc3OC)N(C=O)[C@H]3[C@@](O)(C(=O)OC)[C@H](OC(C)=O)[C@]5(CC)C=CCN6CC[C@]43[C@@H]65)C2)C1 [vincristine]
[3]
  DILI severity category: vLess-DILI-Concern
[4]
  DILI +VE (5-8), DILI -VE (-4): +VE

## CCC1=C[C@@H]2CN(C1)Cc1c([nH]c3ccccc13)[C@@](C(=O)OC)(c1cc3c(cc1OC)N(C)[C@H]1[C@@](O)(C(=O)OC)[C@H](OC(C)=O)[C@]4(CC)C=CCN5CC[C@]31[C@@H]54)C2 [vinorelbine]
[3]
  DILI severity category: Ambiguous DILI-concern
[4]
  DILI +VE (5-8), DILI -VE (-4): -VE

## CC1=C(/C=C/C(C)=C/C=C/C(C)=C/CO)C(C)(C)CCC1 [vitamin a]
[3]
  DILI severity category: vLess-DILI-Concern
[4]
  DILI +VE (5-8), DILI -VE (-4): +VE

## O=C1O[C@H]([C@@H](O)CO)C(O)=C1O [vitamin c]
[3]
  DILI severity category: vNo-DILI-Concern
[4]
  DILI +VE (5-8), DILI -VE (-4): -VE

## O=C(CCCCCCC(=O)Nc1ccccc1)NO [vorinostat]
[3]
  DILI severity category: vNo-DILI-Concern
[4]
  DILI +VE (5-8), DILI -VE (-4): -VE
